Results: ChEMBL document CHEMBL5653631, “A Potent and Selective ULK1 Inhibitor Suppresses Autophagy and Sensitizes Cancer Cells to Nutrient Stress” (iScience, 2018)

Columns and labels:
[1] = target: T1, Ephrin type-A receptor 3 (Homo sapiens) (UniProt P29320); experiment: Inhibition of human recombinant EphA3 at 500 nM in presence of ATP by radiometric assay relative to control
T1 sequence (whole entry): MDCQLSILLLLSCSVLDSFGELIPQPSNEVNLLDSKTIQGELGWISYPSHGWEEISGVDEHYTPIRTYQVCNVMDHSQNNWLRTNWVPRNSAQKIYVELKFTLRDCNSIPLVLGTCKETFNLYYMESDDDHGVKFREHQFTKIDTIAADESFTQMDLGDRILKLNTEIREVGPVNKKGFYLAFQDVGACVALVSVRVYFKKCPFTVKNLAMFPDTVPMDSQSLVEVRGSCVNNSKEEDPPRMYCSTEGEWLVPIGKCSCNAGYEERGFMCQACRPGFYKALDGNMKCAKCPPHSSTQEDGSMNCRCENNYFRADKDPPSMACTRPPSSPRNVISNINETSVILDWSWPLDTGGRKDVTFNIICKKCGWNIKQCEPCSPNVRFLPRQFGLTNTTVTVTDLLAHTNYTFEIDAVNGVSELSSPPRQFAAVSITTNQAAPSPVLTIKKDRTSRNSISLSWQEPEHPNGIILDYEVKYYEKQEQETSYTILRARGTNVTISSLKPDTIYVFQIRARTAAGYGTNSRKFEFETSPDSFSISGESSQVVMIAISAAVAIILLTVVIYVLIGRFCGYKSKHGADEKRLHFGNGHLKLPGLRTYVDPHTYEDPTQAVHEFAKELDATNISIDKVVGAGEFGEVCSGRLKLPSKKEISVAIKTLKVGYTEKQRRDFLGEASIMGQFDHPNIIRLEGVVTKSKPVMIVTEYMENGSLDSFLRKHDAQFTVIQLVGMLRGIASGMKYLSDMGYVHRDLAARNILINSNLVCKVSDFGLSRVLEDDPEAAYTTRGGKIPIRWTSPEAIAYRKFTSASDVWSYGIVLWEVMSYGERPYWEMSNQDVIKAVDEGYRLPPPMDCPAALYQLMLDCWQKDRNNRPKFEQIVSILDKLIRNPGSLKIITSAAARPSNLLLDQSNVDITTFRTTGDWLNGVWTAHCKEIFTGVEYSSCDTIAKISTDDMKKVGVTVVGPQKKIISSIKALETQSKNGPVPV

[2] = target: T2, cGMP-dependent protein kinase 1 (Homo sapiens) (UniProt Q13976); experiment: Inhibition of human recombinant PKG1 at 500 nM in presence of ATP by radiometric assay relative to control
T2 sequence (whole entry): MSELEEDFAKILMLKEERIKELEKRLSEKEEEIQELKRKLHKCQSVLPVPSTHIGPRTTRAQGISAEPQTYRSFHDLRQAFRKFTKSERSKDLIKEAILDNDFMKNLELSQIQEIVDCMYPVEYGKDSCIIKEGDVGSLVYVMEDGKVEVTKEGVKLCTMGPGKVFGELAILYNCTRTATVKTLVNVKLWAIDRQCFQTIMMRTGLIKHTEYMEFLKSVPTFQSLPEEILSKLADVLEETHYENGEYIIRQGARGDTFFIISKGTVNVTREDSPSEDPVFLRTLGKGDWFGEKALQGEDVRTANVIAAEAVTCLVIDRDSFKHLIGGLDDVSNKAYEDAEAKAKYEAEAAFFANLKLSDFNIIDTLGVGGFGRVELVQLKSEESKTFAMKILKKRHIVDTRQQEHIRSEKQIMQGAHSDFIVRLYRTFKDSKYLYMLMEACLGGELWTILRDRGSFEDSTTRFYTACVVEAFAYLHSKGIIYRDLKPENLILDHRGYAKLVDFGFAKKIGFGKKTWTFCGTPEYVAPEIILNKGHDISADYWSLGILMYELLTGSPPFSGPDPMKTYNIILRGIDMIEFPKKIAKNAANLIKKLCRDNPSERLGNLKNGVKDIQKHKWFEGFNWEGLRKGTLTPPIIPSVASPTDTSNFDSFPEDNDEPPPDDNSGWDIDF

[3] = target: Epithelial discoidin domain-containing receptor 1 (Homo sapiens) (UniProt Q08345); experiment: Inhibition of human recombinant DDR1 at 500 nM related to control ULK1
Sequence of Epithelial discoidin domain-containing receptor 1 (Homo sapiens) (Q08345 whole entry, the tested form may be a part): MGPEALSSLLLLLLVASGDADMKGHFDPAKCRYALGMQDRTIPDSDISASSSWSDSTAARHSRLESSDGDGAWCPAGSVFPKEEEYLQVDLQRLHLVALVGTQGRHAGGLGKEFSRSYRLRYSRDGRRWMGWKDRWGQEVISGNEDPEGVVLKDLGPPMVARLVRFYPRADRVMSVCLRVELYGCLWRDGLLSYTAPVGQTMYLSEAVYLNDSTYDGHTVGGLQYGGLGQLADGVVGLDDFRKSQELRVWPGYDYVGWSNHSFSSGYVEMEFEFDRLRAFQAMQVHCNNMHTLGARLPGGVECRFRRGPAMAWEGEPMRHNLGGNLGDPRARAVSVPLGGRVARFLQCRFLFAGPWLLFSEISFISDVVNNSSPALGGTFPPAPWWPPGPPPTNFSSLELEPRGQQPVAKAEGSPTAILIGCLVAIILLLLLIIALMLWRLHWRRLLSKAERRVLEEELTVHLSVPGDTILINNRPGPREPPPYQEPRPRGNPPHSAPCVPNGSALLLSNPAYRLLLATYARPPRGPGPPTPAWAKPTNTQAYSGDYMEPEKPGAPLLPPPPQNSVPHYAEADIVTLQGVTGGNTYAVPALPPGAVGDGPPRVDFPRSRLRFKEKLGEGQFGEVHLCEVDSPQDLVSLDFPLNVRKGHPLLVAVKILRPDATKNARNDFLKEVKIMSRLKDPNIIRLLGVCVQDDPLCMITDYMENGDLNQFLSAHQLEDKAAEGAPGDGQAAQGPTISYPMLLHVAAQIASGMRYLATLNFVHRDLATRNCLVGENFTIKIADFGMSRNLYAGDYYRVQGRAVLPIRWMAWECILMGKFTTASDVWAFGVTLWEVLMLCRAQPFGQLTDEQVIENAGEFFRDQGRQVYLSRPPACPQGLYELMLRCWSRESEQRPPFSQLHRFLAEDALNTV

[4] = target: cAMP-dependent protein kinase catalytic subunit alpha (Homo sapiens) (UniProt P17612); experiment: Inhibition of human recombinant PKACalpha at 500 nM related to control ULK1
[5] = target: Tyrosine-protein kinase SYK (Homo sapiens) (UniProt P43405); experiment: Inhibition of human recombinant SYK at 500 nM related to control ULK1
[6] = target: Calcium/calmodulin-dependent protein kinase type II subunit alpha (Homo sapiens) (UniProt Q9UQM7); experiment: Inhibition of human recombinant CaMK2a at 15 nM in presence of ATP by radiometric assay relative to control
Sequence of Calcium/calmodulin-dependent protein kinase type II subunit alpha (Homo sapiens) (Q9UQM7 whole entry): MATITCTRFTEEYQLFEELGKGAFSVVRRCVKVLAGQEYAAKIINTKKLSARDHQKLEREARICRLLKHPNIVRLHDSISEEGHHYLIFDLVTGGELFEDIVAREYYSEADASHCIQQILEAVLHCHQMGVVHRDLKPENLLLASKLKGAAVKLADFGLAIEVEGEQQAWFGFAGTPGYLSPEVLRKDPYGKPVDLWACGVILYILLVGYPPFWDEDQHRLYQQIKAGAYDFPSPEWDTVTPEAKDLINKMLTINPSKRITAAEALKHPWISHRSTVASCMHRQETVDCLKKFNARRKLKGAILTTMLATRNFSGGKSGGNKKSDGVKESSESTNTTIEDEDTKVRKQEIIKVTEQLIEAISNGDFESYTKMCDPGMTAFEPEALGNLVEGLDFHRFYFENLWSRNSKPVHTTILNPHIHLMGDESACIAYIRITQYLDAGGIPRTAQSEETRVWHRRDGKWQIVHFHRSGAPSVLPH

[7] = target: Serine/threonine-protein kinase pim-2 (Homo sapiens) (UniProt Q9P1W9); experiment: Inhibition of human recombinant PIM2 at 15 nM in presence of ATP by radiometric assay relative to control
Sequence of Serine/threonine-protein kinase pim-2 (Homo sapiens) (Q9P1W9 whole entry, looked up): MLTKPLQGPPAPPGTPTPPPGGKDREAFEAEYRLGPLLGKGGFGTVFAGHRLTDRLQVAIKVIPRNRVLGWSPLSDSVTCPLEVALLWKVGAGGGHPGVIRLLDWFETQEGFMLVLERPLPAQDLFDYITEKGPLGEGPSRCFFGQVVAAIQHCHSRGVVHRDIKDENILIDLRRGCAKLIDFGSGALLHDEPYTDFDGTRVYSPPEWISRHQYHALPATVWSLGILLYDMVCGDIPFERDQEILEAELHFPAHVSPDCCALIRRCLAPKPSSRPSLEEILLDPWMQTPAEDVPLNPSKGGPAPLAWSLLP

[8] = target: Serine/threonine-protein kinase PRP4 homolog (Homo sapiens) (UniProt Q13523); experiment: Inhibition of human recombinant PRP4 at 15 nM in presence of ATP by radiometric assay relative to control
Sequence of Serine/threonine-protein kinase PRP4 homolog (Homo sapiens) (Q13523 whole entry): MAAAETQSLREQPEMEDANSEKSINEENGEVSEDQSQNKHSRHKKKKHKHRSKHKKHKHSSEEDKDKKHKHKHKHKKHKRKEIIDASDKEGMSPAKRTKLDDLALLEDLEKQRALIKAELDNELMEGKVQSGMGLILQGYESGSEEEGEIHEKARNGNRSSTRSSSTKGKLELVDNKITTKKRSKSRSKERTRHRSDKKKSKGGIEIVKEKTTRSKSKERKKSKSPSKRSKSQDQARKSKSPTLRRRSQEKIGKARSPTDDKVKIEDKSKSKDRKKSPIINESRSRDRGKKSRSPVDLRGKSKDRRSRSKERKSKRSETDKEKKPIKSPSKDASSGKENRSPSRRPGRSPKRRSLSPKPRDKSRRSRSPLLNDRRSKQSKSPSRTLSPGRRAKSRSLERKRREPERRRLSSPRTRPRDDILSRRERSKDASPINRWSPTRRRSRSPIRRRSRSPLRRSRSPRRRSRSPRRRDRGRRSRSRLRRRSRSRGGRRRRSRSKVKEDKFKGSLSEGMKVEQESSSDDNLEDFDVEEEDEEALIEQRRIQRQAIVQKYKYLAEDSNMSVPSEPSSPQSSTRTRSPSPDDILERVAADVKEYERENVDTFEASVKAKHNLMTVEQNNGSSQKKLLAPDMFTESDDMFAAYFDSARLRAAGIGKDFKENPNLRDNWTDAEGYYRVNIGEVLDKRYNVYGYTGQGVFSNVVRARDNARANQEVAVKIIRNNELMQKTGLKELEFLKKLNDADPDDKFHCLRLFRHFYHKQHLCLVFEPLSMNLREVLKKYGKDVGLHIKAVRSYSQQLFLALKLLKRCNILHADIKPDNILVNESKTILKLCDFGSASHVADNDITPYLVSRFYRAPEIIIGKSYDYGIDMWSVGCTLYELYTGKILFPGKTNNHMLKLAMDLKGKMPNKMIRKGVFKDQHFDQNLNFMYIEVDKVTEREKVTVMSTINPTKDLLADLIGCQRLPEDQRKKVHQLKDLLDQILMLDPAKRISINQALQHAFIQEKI

[9] = target: Tyrosine-protein kinase Fgr (Homo sapiens) (UniProt P09769); experiment: Inhibition of human recombinant FGR at 15 nM related to control ULK1
Sequence of Tyrosine-protein kinase Fgr (Homo sapiens) (P09769 2-529 limits assumed): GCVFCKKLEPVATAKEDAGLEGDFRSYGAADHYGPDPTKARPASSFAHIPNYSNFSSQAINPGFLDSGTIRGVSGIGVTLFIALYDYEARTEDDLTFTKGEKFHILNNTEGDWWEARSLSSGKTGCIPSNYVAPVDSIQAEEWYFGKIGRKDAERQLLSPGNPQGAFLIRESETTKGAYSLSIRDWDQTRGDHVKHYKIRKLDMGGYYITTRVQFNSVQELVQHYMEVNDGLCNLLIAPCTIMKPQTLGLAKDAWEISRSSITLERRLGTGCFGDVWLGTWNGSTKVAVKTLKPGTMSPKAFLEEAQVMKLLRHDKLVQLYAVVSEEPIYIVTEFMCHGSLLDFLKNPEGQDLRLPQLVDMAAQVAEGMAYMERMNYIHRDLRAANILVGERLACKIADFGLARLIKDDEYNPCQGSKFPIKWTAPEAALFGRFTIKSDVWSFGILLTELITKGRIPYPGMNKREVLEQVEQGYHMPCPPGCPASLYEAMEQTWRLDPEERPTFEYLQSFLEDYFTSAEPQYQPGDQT

[10] = target: Vascular endothelial growth factor receptor 1 (Homo sapiens) (UniProt P17948); experiment: Inhibition of human recombinant FLT1 at 15 nM related to control ULK1
[11] = target: Leukocyte tyrosine kinase receptor (Homo sapiens) (UniProt P29376); experiment: Inhibition of human recombinant LTK at 15 nM related to control ULK1
[12] = target: Serine/threonine-protein kinase MAK (Homo sapiens) (UniProt P20794); experiment: Inhibition of human recombinant MAK at 15 nM related to control ULK1
[13] = target: Ephrin type-A receptor 4 (Homo sapiens) (UniProt P54764); experiment: Inhibition of human recombinant EphA4 at 40 nM in presence of ATP by radiometric assay relative to control
Sequence of Ephrin type-A receptor 4 (Homo sapiens) (P54764 whole entry): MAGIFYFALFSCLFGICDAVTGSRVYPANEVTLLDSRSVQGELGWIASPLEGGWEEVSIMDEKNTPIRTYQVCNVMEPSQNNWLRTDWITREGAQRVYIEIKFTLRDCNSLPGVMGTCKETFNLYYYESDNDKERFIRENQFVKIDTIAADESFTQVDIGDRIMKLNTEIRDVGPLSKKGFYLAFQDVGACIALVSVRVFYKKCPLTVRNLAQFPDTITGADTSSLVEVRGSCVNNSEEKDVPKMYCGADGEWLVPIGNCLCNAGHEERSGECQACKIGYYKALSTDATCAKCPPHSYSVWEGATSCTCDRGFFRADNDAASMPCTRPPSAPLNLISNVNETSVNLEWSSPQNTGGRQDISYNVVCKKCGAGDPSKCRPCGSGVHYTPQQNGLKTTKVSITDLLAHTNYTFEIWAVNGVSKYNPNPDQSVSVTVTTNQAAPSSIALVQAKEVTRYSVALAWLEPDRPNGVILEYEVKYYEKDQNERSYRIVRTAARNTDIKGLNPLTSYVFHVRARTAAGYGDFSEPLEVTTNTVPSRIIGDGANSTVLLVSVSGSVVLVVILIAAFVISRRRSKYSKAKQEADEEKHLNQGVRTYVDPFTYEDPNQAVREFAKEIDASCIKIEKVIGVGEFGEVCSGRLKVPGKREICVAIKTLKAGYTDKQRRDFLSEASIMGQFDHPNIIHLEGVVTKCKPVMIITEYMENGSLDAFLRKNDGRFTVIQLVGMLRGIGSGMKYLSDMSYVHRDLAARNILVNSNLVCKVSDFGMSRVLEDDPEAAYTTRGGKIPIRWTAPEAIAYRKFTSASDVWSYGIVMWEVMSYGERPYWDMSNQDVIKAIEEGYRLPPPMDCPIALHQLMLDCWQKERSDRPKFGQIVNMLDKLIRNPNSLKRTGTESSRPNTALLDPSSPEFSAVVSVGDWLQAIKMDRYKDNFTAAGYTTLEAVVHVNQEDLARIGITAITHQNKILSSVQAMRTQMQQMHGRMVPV

[14] = target: Tyrosine-protein kinase JAK1 (Homo sapiens) (UniProt P23458); experiment: Inhibition of human recombinant JAK1 at 40 nM in presence of ATP by radiometric assay relative to control
[15] = target: Serine/threonine-protein kinase MARK1 (Homo sapiens) (UniProt Q9P0L2); experiment: Inhibition of human recombinant MARK1 at 40 nM related to control ULK1
Sequence of Serine/threonine-protein kinase MARK1 (Homo sapiens) (Q9P0L2 whole entry, looked up): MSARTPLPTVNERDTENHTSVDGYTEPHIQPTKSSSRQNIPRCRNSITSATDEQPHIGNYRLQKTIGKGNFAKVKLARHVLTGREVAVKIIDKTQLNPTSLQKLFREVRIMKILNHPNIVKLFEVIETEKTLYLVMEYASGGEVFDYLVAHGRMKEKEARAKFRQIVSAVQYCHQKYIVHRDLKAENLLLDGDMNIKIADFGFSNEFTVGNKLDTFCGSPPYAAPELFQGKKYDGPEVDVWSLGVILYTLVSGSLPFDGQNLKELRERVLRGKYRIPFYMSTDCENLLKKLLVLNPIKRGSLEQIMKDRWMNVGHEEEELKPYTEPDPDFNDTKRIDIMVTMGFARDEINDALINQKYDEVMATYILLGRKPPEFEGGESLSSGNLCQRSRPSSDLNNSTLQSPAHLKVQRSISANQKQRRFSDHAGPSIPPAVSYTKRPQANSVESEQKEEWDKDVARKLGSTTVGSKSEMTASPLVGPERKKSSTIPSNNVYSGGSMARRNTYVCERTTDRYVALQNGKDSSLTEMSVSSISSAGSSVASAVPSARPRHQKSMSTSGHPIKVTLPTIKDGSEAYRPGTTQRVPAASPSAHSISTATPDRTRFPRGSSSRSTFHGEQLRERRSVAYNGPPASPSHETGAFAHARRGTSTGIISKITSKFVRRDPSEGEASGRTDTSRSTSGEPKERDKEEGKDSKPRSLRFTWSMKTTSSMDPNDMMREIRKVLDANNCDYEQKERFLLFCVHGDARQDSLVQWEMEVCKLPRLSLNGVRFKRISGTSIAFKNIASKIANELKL

[16] = target: High affinity nerve growth factor receptor (Homo sapiens) (UniProt P04629); experiment: Inhibition of human recombinant TRKA at 40 nM related to control ULK1

CNC(=O)c1ccccc1Oc1nc(Nc2cc(OC)c(OC)c(OC)c2)ncc1Br
inhibition [1]: 11% | inhibition [2]: 4% | fold change (FC) [3]: 0.64 | fold change (FC) [4]: 0 | fold change (FC) [5]: 0

CC(C)[C@H](NC(=O)c1cc(-c2cnn3cc(-c4ccc(OCCN5CCCCC5)cc4)cnc23)cs1)C(F)(F)F
inhibition [6]: 41% | inhibition [7]: 0% | inhibition [8]: 6% | fold change (FC) [9]: 0.49 | fold change (FC) [10]: 0.1 | fold change (FC) [11]: 0 | fold change (FC) [12]: 0.06

O=C(N[C@@H](C1CC1)C(F)(F)F)c1cc(-c2cnn3cc(-c4ccc(F)cc4)cnc23)cs1
inhibition [13]: 0% | inhibition [14]: 0% | fold change (FC) [15]: 0.4 | fold change (FC) [16]: 0
